Experimental findings from ChEMBL document CHEMBL1201862, “PubChem BioAssay data set” (2004) are described below.

Test systems include COLO 205; T47D; SW-620; K562; OVCAR-3; SR; UACC-257; Hs-578T; A549; SK-MEL-28; LOX IMVI; MCF7; HCT-15; Malme-3M; SNB-19; HL-60; A498; TK-10; UACC-62; MDA-N.
Assay in all cases: DTP human tumour cell line panel, 48 h

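Grown in 96-well plates, cells were treated for 48 hours with each compound at five concentrations. Insufficient inhibition: endpoint recorded as highest concentration tested. GI50 = concentration required for 50% inhibition of growth.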 Activity calls are given as the source filed them. Cut-off read from the data, not from the text of the source: active = GI50 up to about 1.1 µM and inactive = higher.

`CN(C)Cc1cc(/N=N/c2c(Cl)cccc2Cl)ccc1O`: the GI50 was > 100 µM (inactive) with COLO 205; 42.6 µM (inactive) with T47D; 79.6 µM (inactive) in the assay on SW-620; 53.5 µM (inactive) with K562; 57.4 µM (inactive) in the assay with OVCAR-3; 48.9 µM (inactive) in the assay on SR. The GI50 in the assay with UACC-257 is 79.6 µM (inactive); in the assay with Hs-578T it was 40.9 µM (inactive); with A549, 61.5 µM (inactive); in the assay with SK-MEL-28, 71.8 µM (inactive); in the assay on LOX IMVI, 74.3 µM (inactive); in the assay on MCF7, > 100 µM (inactive). Besides, the 50% growth inhibitory concentration (GI50) is greater than 100 µM in the assay with HCT-15; 74.5 µM (inactive) in the assay on Malme-3M; > 100 µM (inactive) with SNB-19; 68.4 µM (inactive) with HL-60; 55.5 µM (inactive) in the assay on A498; > 100 µM (inactive) with TK-10. Besides, the GI50 in the assay with UACC-62 was 62.2 µM (inactive); in the assay with MDA-N, > 100 µM (inactive).

Turning to `CCOC(=O)C1c2[nH]c3ccccc3c2CCN1C(=O)c1ccc(OC)o1` (configuration not stated), the GI50 in the assay with COLO 205, with T47D, in the assay on SW-620, with K562, in the assay with OVCAR-3 and in the assay on SR was > 10 µM (inactive) in each case. Moreover, the GI50 with UACC-257 was > 10 µM (inactive); in the assay with Hs-578T, > 10 µM (inactive); in the assay with SK-MEL-28, > 10 µM (inactive); in the assay with LOX IMVI it was > 10 µM (inactive); in the assay on MCF7, > 10 µM (inactive); with HCT-15, greater than 10 µM. The GI50 in the assay on Malme-3M was 1.29 µM (inactive); with SNB-19, > 10 µM (inactive); with HL-60, > 10 µM (inactive); with A498, > 10 µM (inactive); with TK-10, > 10 µM (inactive); in the assay with MDA-N, > 10 µM (inactive).

Regarding `CC(C)(C)NC(=O)CCC1C(C(=O)NC(C)(C)C)C2(Cl)C(Cl)=C(Cl)C1(Cl)C2(Cl)Cl` (configuration not stated), the GI50 in the assay with COLO 205, in the assay with T47D, in the assay with SW-620, in the assay with K562, in the assay on OVCAR-3 and in the assay with SR was > 100 µM (inactive) each time. Moreover, the GI50 in the assay on UACC-257, in the assay with Hs-578T, in the assay on A549, in the assay on SK-MEL-28, in the assay with LOX IMVI and in the assay on MCF7 was > 100 µM (inactive) in each case. The GI50 with HCT-15 is greater than 100 µM; in the assay with Malme-3M, > 100 µM (inactive); in the assay on SNB-19, > 100 µM (inactive); with HL-60, > 100 µM (inactive); with A498 it was > 100 µM (inactive); with TK-10 it was > 100 µM (inactive). Moreover, the GI50 with UACC-62 and with MDA-N was > 100 µM (inactive) each time.

As for `CCNC(=S)N/N=C1\C(=O)Nc2ccc([N+](=O)[O-])cc21`, the GI50 with COLO 205 is > 100 µM (inactive); with T47D, 31.6 µM (inactive); in the assay with SW-620, 50.2 µM (inactive); with K562 it was 52.7 µM (inactive); with OVCAR-3, 40.4 µM (inactive); in the assay on SR it was 31.3 µM (inactive). Further, the GI50 is 53.5 µM (inactive) with UACC-257; 98.9 µM (inactive) in the assay on Hs-578T; 35.7 µM (inactive) with A549; 48 µM (inactive) in the assay with SK-MEL-28; 61.4 µM (inactive) in the assay on LOX IMVI; 41 µM (inactive) in the assay with MCF7. Besides, the 50% growth inhibitory concentration (GI50) with HCT-15 was 49.3 µM; in the assay on Malme-3M, 57.8 µM (inactive); with SNB-19 it was 45.4 µM (inactive); in the assay with HL-60 it was 92.9 µM (inactive); in the assay on A498, 22.9 µM (inactive); in the assay with TK-10, 18.2 µM (inactive). Besides, the GI50 was 99.1 µM (inactive) with UACC-62 and > 100 µM (inactive) in the assay on MDA-N.

`C#CCn1c(I)cc2c(c1=O)COC(=O)[C@]2(O)CC`: the GI50 with COLO 205, in the assay with T47D, with SW-620, with K562, in the assay on OVCAR-3 and with SR was > 100 µM (inactive) each time. Also, the GI50 in the assay with UACC-257, with Hs-578T, with A549, with SK-MEL-28, with LOX IMVI and with MCF7 was > 100 µM (inactive) each time. The concentration for 50% growth inhibition (GI50) with HCT-15 was greater than 100 µM; in the assay on Malme-3M it was > 100 µM (inactive); with SNB-19, > 100 µM (inactive); in the assay with HL-60, > 100 µM (inactive); in the assay with A498, > 100 µM (inactive); in the assay on TK-10, > 100 µM (inactive). The GI50 with UACC-62 and with MDA-N was > 100 µM (inactive) each time.

As for `CC1(c2cccc(Cl)c2)CC(c2cccc(Cl)c2)=C(C#N)C(=C(C#N)C#N)N1` (configuration not stated), the GI50 in the assay with COLO 205 is 13.2 µM (inactive); in the assay with T47D, 13.2 µM (inactive); with SW-620 it was 12.1 µM (inactive); in the assay with K562, 14.3 µM (inactive); with OVCAR-3, 10.3 µM (inactive); in the assay on SR, 14.3 µM (inactive). Besides, the GI50 in the assay on UACC-257 is 20.1 µM (inactive); with Hs-578T, 9.75 µM (inactive); with A549 it was 19.5 µM (inactive); with SK-MEL-28, 20.7 µM (inactive); in the assay on LOX IMVI, 19.8 µM (inactive); with MCF7 it was 20.6 µM (inactive). Further, the GI50 with HCT-15 is 16 µM; in the assay with Malme-3M, 17.1 µM (inactive); in the assay with SNB-19 it was 17.9 µM (inactive); with HL-60, 18.4 µM (inactive); in the assay with A498 it was 20.3 µM (inactive); with TK-10, 17.7 µM (inactive). In addition, the values for the GI50 with UACC-62 and in the assay on MDA-N were 17 µM (inactive) and 20.1 µM (inactive), respectively.

On to `CC(C(O)c1ccccc1)C(O)(C(F)(F)F)C(F)(F)F` (configuration not stated), for which the GI50 in the assay with COLO 205, in the assay with T47D, in the assay with SW-620, in the assay with K562, with OVCAR-3 and with SR was > 100 µM (inactive) each time. Moreover, the GI50 in the assay on UACC-257 is > 100 µM (inactive); in the assay with Hs-578T, > 100 µM (inactive); in the assay on A549, > 100 µM (inactive); in the assay on SK-MEL-28, > 100 µM (inactive); in the assay on LOX IMVI, > 100 µM (inactive); in the assay with MCF7 it was 76.4 µM (inactive). For the same compound, the 50% growth inhibitory concentration (GI50) with HCT-15 is greater than 100 µM; in the assay with Malme-3M it was > 100 µM (inactive); in the assay on SNB-19, > 100 µM (inactive); in the assay with HL-60 it was > 100 µM (inactive); in the assay on A498, > 100 µM (inactive); in the assay with TK-10 it was > 100 µM (inactive). In addition, the GI50 in the assay on UACC-62 and in the assay on MDA-N was > 100 µM (inactive) each time.

Consider `O=C(/C=C1\C[C@H]2C=Nc3ccccc3C(=O)N2C1)NCCCCCNC(=O)/C=C1\C[C@H]2C=Nc3ccccc3C(=O)N2C1`, for which the GI50 in the assay with COLO 205 is 0.532 µM (active); in the assay on T47D, 2.53 µM (inactive); in the assay on SW-620, 2.1 µM (inactive); in the assay on K562, 2.88 µM (inactive); with OVCAR-3 it was 4.1 µM (inactive); with SR, 1.6 µM (inactive). The GI50 was 4.36 µM (inactive) in the assay with UACC-257; 22.6 µM (inactive) in the assay with Hs-578T; 22.9 µM (inactive) with A549; 12.1 µM (inactive) in the assay with SK-MEL-28; 1.98 µM (inactive) with LOX IMVI; 6.97 µM (inactive) in the assay with MCF7. The 50% growth inhibitory concentration (GI50) with HCT-15 was 3.44 µM; in the assay on Malme-3M, 2.52 µM (inactive); in the assay on SNB-19, 16.1 µM (inactive); with HL-60, 2.4 µM (inactive); in the assay with A498, 19.1 µM (inactive); with TK-10, 4.32 µM (inactive). The GI50 in the assay on UACC-62 is 14.7 µM (inactive); with MDA-N it was 7 µM (inactive).

With `Cc1ccc(C(=O)/C(C#N)=C/Nc2c(C)n(C)n(-c3ccccc3)c2=O)cc1`, the GI50 in the assay on COLO 205, with T47D, in the assay on SW-620, in the assay with K562, with OVCAR-3 and in the assay with SR was > 100 µM (inactive) in each case. The GI50 in the assay with UACC-257, in the assay with Hs-578T, in the assay with A549, with SK-MEL-28, in the assay on LOX IMVI and with MCF7 was > 100 µM (inactive) each time. Moreover, the GI50 in the assay with HCT-15 was greater than 100 µM; with Malme-3M it was > 100 µM (inactive); in the assay on SNB-19, > 100 µM (inactive); in the assay on HL-60, > 100 µM (inactive); in the assay on A498, > 100 µM (inactive); in the assay with TK-10, > 100 µM (inactive). Also, the GI50 in the assay with UACC-62 and with MDA-N was > 100 µM (inactive) throughout.

As to `COc1cc2c(cc1OC)C(=O)/C(=C/c1cc(C)c(O)c(C)c1)C2`, the GI50 was 5.02 µM (inactive) in the assay on COLO 205; > 100 µM (inactive) with T47D; < 0.0106 µM (active) in the assay on SW-620; < 0.01 µM (active) in the assay on K562; 0.0115 µM (active) with OVCAR-3; < 0.01 µM (active) in the assay with SR. Moreover, the 50% growth inhibitory concentration (GI50) in the assay with UACC-257 was 0.755 µM (active); in the assay with Hs-578T it was < 0.01 µM (active); in the assay on A549 it was < 0.0165 µM (active); in the assay on SK-MEL-28, > 75.7 µM (inactive); in the assay with LOX IMVI it was < 0.0259 µM (active); in the assay on MCF7, < 0.0148 µM (active). Also, the GI50 was less than 0.01 µM with HCT-15; < 0.01 µM (active) in the assay on Malme-3M; < 0.01 µM (active) in the assay on HL-60; > 21.2 µM (inactive) in the assay on A498; > 76.7 µM (inactive) in the assay with TK-10; < 0.0168 µM (active) in the assay with UACC-62. The 50% growth inhibitory concentration (GI50) with MDA-N was < 0.01 µM (active).

By GI50 is commonly meant the concentration that inhibits growth by half.
